Test results: patent publication US20210299260A1, “THERAPEUTIC CONJUGATES” (Ariel Scientific Innovations Ltd., priority 2018, published 2021)

What was measured:
[1] = literature report; cited from earlier work
[2] = tested on: A172 GBM cells; assay: Intracranial A172 GBM xenograft model in nude mice (weight, survival, histopathology); conditions: for brain structure in brain sections / tumor area, tumor distribution and invasion in brain sections: H&E stained brain sections at termination; for brain structure in brain sections: FIG. 4; for brain structure in brain sections / tumor area, tumor distribution and invasion in brain sections / body weight gain of tumor-bearing mice / survival of tumor-bearing mice: Compound 1 50 mg/kg, TMZ 25 mg/kg; for body weight gain of tumor-bearing mice / survival of tumor-bearing mice: i.p. once daily, five injections; for body weight gain of tumor-bearing mice: FIG. 2; for survival of tumor-bearing mice: FIG. 3A; for tolerability to treatment: mice bearing GBM tumors, reflected by body weight and survival
Protocol: The efficacy of Compound 1 in inhibition of intracranial malignant brain glioblastoma growth and survival in nude mice was evaluated using nude mice that were implanted with 5×10^5 A172 GBM cells in the right striatum, followed by consequent once daily five intraperitoneal injections with the vehicle, TMZ (25 mg/kg) and Compound 1 (50 mg/kg), on the tenth day after glioblastoma implantation.
Mice brains were collected at termination day determined by appearance of severe clinical signs within tumor progression and invasion in brain tissue. Brains were fixed with 4% PFA, paraffin embedded and serially cut in to 5 μm. Three slides within a distance of 100 μm apart were sampled for each brain, and stained with hematoxyline-eosin dyes (H&E). Tumor area, distribution and invasion in to brain tissue were observed under light microscopy.

[3] = physchem; assay type: physicochemical; conditions: for half-life: buffer
Protocol: These studies were performed for Compound 1 at two pH values: 4.6 and 7.4, and compared to triazene drug dacarbazine (DTIC). These chosen pHs mimic relatively acidic cancer intracellular (pH 4.6) and slightly basic physiological (pH 7.4) environments.
(§1) The results for DTIC are consistent with the reported stability of the control drug in various hydrolytic media. In addition, Compound 1 decomposition has been studied by hepatic cytochrome P450 induction in hepatocellular carcinoma HepG2 cells using LC-MS (FIG. 1D). […] The decomposition of Compound 1 was examined in cell medium and in cell lysate, while the identification of metabolites was carried out solely in cell lysate.

[4] = tested on: hepatocellular carcinoma HepG2 cells; assay: Decomposition and metabolite detection in HepG2 cells (medium versus cell lysate), LC-MS; assay type: in vitro ADME
Protocol: as §1
It is assumed that this metabolite is the result of oxidation of Compound 1 by hepatic cytochrome P450 and subsequent degradation of two dimethyl triazene tethers in agreement with the mechanism of action of dacarbazine. The observed stability of Compound 1 in PBS potentiates its pharmacological utility during circulation in blood. Therefore, it is concluded that the stability of Compound 1 is sufficient for proceeding to animal models.

[5] = pH 7.4; cited from earlier work
[6] = listed as DKP-dimethyltriazene conjugate

For `NCC(=O)CCC(=O)O` [5-aminolevulinic acid], the BBB permeability [1] is listed as “did not show permeability”.
In the case of `CN(C)/N=N/c1ccc(C[C@H]2C(=O)N(C)[C@@H](Cc3ccc(/N=N/N(C)C)cc3)C(=O)N2C)cc1` [Compound 1, (3S,6S)-3,6-bis(4-((E)-3,3-dimethyltriaz-1-en-1-yl)benzyl)-1,4-dimethylpiperazine-2,5-dione], the “brain structure in brain sections” value [2] is reported as “normal brain structure”, the “tumor area, tumor distribution and invasion in brain sections” value [2] is reported as “noticeable reduction” and the “body weight gain of tumor-bearing mice” value [2] is reported as “normal weight gain”. The “body weight gain of tumor-bearing mice” value [2, 6] was “no weight loss”, the “survival of tumor-bearing mice” value [2] was “prominent effect on tumor bearing mice survival rate” and the “survival of tumor-bearing mice” value [2, 6] was “superior activity compared to TMZ in overall survival”. The tolerability to treatment [2] was “good tolerability”, the half-life ([3]; pH 4.6) was 4.8 h and the “stability in PBS buffer” value ([3]; pH 7.4) was “sufficient stability”. The “decomposition in cell medium” value ([4]; HepG2, incubation in cell medium, FIG. 1C) was “continuous decomposition”, the “accumulation/decomposition in cell lysate” value ([4]; HepG2 cell lysate, FIG. 1C) was “gradually accumulated within an hour of incubation and decomposed subsequently” and the “main metabolite detected in cell lysate” value ([4]; HepG2 cell lysate, LC-MS, FIG. 1D) was “containing monomethyl triazene (MTIC like) and aniline (AIC like) groups”.
Compound `CN(C)/N=N/c1[nH]cnc1C(N)=O` [DTIC, dacarbazine, reference compound] has a half-life ([3]; pH 4.6) of 5.1 h and a half-life ([3]; pH 7.4) of 10.2 h.
In the case of `Cn1nnc2c(C(N)=O)ncn2c1=O` [TMZ, Temozolomide, reference compound], the “brain structure in brain sections” value [2] is reported as “both lateral and third ventricles were significantly enlarged”, the “tumor area, tumor distribution and invasion in brain sections” value [2] is reported as “noticeable reduction” and the “body weight gain of tumor-bearing mice” value [2] is reported as “Significant body weight gain reduction”. For the same compound, the tolerability to treatment [2] was “relatively toxic and poorly tolerable” and the plasma half-life [5] was 1.8 h.
In the case of `O=C(O)C1CCCNC1` (centres unmarked) [nipecotic acid], the BBB permeability [1] is given as “did not show permeability”.
In the case of `NCCCC(=O)O` [γ-aminobutyric acid], the BBB permeability [1] is listed as “did not show permeability”.
For N-Me-Phe-(N-Me-Phe)3-CONH2, the BBB permeability [1] is given as “High BBB-permeability”.
